Earlier results in article PMC5944417 (Heliyon, 2018).

Experiments:
Conditions in all cases: ref Maes et al., 2007
porcine kallikrein = tested on: porcine kallikrein
trypsin = molecular target: trypsin
papain = tested on: papain
cathepsin B = molecular target: cathepsin B
plasmin = molecular target: plasmin
endoproteinase Lys-C = tested on: endoproteinase Lys-C

Ki (trypsin): 3.4 nM
Ki (cathepsin B): 4.1 nM
Ki (plasmin): 3.5 nM
inhibition (endoproteinase Lys-C): inhibited
Structure (SMILES): CC(=O)N[C@@H](CC(C)C)C(=O)N[C@@H](CC(C)C)C(=O)N[C@H](C=O)CCCNC(=N)N [Leupeptin, N-acetyl-L-leucyl-L-leucyl-L-argininal]
inhibition (porcine kallikrein): inhibited
inhibition (papain): inhibited
